Type in all cases: biochemical
The target in experiment [1] is T1, Zea mays EPSPS variant Zm-H6 (868-H6) with A69V (H6-A69V) (Zea mays, UniProt O24566, A1R/A3W/A415G/A68V/A71Q/D401G/E301S/E390G/G101A/I207L/K83R/L97C/T278A/T360S/T440Q/V437R).
T1 sequence (O24566 with tags, fused parts or gaps A1R/A3W/A68V/A71Q/K83R/L97C/G101A/I207L/T278A/E301S/T360S/E390G/D401G/A415G/V437R/T440Q): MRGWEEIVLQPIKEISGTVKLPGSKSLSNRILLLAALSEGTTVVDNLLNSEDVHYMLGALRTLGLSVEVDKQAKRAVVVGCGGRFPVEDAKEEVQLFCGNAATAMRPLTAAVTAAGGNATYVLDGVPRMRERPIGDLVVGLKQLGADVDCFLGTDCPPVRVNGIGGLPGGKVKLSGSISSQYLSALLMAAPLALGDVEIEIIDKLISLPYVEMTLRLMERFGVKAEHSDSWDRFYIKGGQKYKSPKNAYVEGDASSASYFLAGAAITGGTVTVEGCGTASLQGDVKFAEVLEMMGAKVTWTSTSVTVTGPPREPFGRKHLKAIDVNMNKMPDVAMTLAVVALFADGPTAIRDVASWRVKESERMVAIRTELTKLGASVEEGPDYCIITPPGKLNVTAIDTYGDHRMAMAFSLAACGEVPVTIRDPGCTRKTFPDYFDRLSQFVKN
In words: Rapid two-rate method for (kcat/KM)*KI, H6-A69V. The following applies: [E] 0.07 uM, [Gly] 1000 uM. An excerpt:
(§1) There are several practical considerations for accurately estimating (kcat/KM)*KI with the rapid method. […] 2) The inhibitor concentration must be adjusted so as to obtain a degree of inhibition that minimally amplifies the error in the term v0-vi in Equation 3. If inhibition is too little, v0-vi will be small, and the error in the multiplier vi×v0/(v0-vi) will be large. […] 3) Substrate concentration should be set at the approximate KM of the parental variant(s), subject to the sensitivity of the assay. High substrate concentration obscures sensitivity to the inhibitor and reduces stringency for capturing improvements in KM. Depending on the necessity for speed, there exists opportunity for customizing enzyme and inhibitor concentrations. […] The rapid method was repeated for those and obtained data that correlated better with data obtained by substrate saturation analysis. For screening purposes however, that correlation step is not necessary. Conditions can be set so that variants with a pre-determined minimal fitness level are accurately quantified.
(§2) In Table 15, parameters above the heavy line for the rapid method were obtained under standard conditions. For variants shown below the heavy line, the rapid analysis was repeated with enzyme or glyphosate concentrations adjusted as needed to generate sufficient signal within the limits for linear initial rates.

In experiment [2] the target is T2, Zea mays EPSPS variant Zm-T103I (Zea mays, UniProt O24566, T102I).
T2 construct: native maize plus T103I; E. coli BL21(DE3), Ni-NTA purified
T2 sequence (O24566 with tags, fused parts or gaps T102I): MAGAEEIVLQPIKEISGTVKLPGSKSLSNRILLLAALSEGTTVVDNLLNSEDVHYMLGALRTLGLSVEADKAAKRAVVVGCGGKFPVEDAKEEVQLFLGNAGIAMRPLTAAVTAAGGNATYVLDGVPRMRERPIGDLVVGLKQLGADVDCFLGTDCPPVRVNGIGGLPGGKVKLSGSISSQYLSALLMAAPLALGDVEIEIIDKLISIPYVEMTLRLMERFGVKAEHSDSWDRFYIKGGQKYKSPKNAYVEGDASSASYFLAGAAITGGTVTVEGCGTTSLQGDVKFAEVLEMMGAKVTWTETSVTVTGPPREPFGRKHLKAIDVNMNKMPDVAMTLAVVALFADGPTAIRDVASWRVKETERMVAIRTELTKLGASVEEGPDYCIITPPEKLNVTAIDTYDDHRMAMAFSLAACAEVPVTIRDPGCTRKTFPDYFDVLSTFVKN
In words: Rapid two-rate method for (kcat/KM)*KI, Zm-T103I.
Source text: as §1, §2

Experiment [3] deals with T3, Zea mays EPSPS variant Zm-H6 (868-H6) with A76V (H6-A76V) (Zea mays, UniProt O24566, A1R/A3W/A415G/A71Q/A75V/D401G/E301S/E390G/G101A/I207L/K83R/L97C/T278A/T360S/T440Q/V437R).
T3 sequence (O24566 with tags, fused parts or gaps A1R/A3W/A71Q/A75V/K83R/L97C/G101A/I207L/T278A/E301S/T360S/E390G/D401G/A415G/V437R/T440Q): T1 sequence (O24566 with tags, fused parts or gaps A1R/A3W/A68V/A71Q/K83R/L97C/G101A/I207L/T278A/E301S/T360S/E390G/D401G/A415G/V437R/T440Q) with V69A, A76V
In words: Substrate saturation kinetic analysis with glyphosate, H6-A76V.

Changes are numbered by the printed parent chain.

Usually Ki stands for a measure of affinity in units of concentration, obtained from inhibition or displacement. Read a high Ki as lower affinity. `O=C(O)CNCP(=O)(O)O` [glyphosate, N-phosphonomethylglycine]: the “(kcat/KM)*KI” value is given as 2977 in experiment [1]; 116 in experiment [2] (rapid method repeated, [E] 0.103 uM, [Gly] 100 uM); 133 in experiment [2] (rapid method, [E] 0.07 uM, [Gly] 1000 uM); 2490 in experiment [3] (substrate saturation, H6-A76V). Besides, in experiment [3], the Ki amounted to 538 µM.

Values taken from patent US11549123B2, “Plant EPSP synthases and methods of use” (PIONEER HI-BRED INTERNATIONAL, INC., priority 2015, dated 2023).
